How the values were obtained:
Assay type in all cases: physicochemical
[1] = Stability of crystalline form of Compound I in WO2019175263 in drug product formulation process; details: formulation of Table 34, stirring at room temperature
Excerpt: The crystalline form of Compound I in WO2019175263 was made into drug products according to the formulation and preparation process in Table 34 and Table 35. The XRPD patterns were collected before and after the formulation process. […] Form change occurred during stirring at room temperature.

[2] = Hygroscopicity by dynamic vapor sorption (DVS); details: 80% RH, 25° C., DVS
Experimental: Dynamic Vapor Sorption (DVS) is measured via a SMS (Surface Measurement Systems Ltd.) intrinsic DVS instrument. Its control software is DVS-Intrinsic control software. Typical parameters for DVS tests are as follows:
Gas and flow rate: N2, 200 mL/min
RH range: 0% RH to 95% RH
The weight gains at each relative humidity were recorded in a cycle of 0-95%-0 RH. The XRPD patterns were collected before and after the DVS test and depicted in FIG. 11.
Description and definition of hygroscopicity (general notice 9103 drug hygroscopicity test guidelines in 2015 edition of Chinese Pharmacopoeia, test at 25° C.+/−1° C., 80% RH. The definition of hygroscopicity in the 9th European Pharmacopoeia 5.11 is in consistent with the Chinese Pharmacopoeia.). • deliquescent: sufficient water is absorbed to form a solution. • very hygroscopic: increase in mass is equal to or greater than 15 percent. • hygroscopic: increase in mass is less than 15 percent and equal to or greater than 2 percent. • slightly hygroscopic: increase in mass is less than 2 percent and equal to or greater than 0.2 percent. • non hygroscopic or almost non hygroscopic: Increase in mass is less than 0.2%.
The weight gains at each relative humidity were recorded in a cycle of 0-95%-0RH. The XRPD patterns were collected before and after the DVS test and depicted in FIG. 22. […] Form CSVI is slightly hygroscopic.
The weight gains at each relative humidity were recorded in a cycle of 0-95%-0RH. The XRPD patterns were collected before and after the DVS test and depicted in FIG. 31.

[3] = Stability of Form CSVII drug product on storage; details: 30° C./60% RH
[4] = Adhesiveness (material sticking to the punch); details: 30 mg, φ8 mm round tooling, 10 KN held for 30 s
Experimental: The punch was weighed and amount of material sticking to the punch was calculated. The compression was repeated twice and the cumulative amount, maximum amount and average amount of material sticking to the punch during the compression were recorded.

[5] = Compressibility (manual tablet press, tensile strength); details: 80 mg, φ6 mm round tooling, 10 KN
Experimental: An ENERPAC manual tablet press was used for tableting. […] Diameter (D) and thickness (L) were tested with a caliper. Hardness (H) was tested with an intelligent tablet hardness tester. Tensile strength of the powder was calculated with the following formula: T=2H/πDL*9.8. Under a certain force, the greater the tensile strength, the better the compressibility.
Diameter (D) and thickness (L) were tested with a caliper. Hardness (H) was tested with an intelligent tablet hardness tester. Tensile strength of the powder was calculated with the following formula: T=2H/πDL*9.8. Under a certain force, the greater the tensile strength, the better the compressibility.

[6] = Dissolution profile of tablets in pH6.8 PBS+1% Tween 80; details: tablet 61 mg, paddle 75 rpm, 37° C.
Experimental: The cumulative dissolution was measured at different time in pH6.8 PBS+1% Tween 80 and pH6.8 PBS+3% Tween 80. The dissolution results are presented in Table 24 (FIG. 23) and Table 25 (FIG. 24).
The cumulative dissolution was measured at different time in pH6.8 PBS+1% Tween 80.

[7] = Stability of drug substance on storage (XRPD, HPLC purity); details: for chemical purity during storage: drug substance
Excerpt: Crystalline form and chemical impurity were checked by XRPD and HPLC, respectively.
Crystalline form and purity were checked by XRPD and HPLC, respectively.

[8] = 40° C./75% RH, Sealed, 3 months
[9] = 60° C./75% RH, Sealed, 2 months

For `O=C(O)c1ccc2nc(-c3cc(Cl)cc(Cl)c3)oc2c1`, the “stability in the formulation process (XRPD before and after)” value [1] was “unstable in the formulation process”.

For `O=C(O)CCCCC(=O)O.O=C(O)c1ccc2nc(-c3cc(Cl)cc(Cl)c3)oc2c1.O=C(O)c1ccc2nc(-c3cc(Cl)cc(Cl)c3)oc2c1` [Form CSVII], the Weight gain [2] was 0.04%, the “time for which crystalline state of drug product doesn't change” value [3] was “at least three months” and the “Average amount (mg) of material sticking to the punch” value [4] was 0.200 mg. For the same compound, the Hardness ([5]; 24 hours recovery) was 7.45 kgf, the Tensile strength ([5]; T=2H/πDL*9.8) was 4.02 MPa and the “Cumulative drug release in pH 6.8 PBS + 1% Tween 80 (%)” value (from here on “Cumulative drug release … (%)”) ([6]; 0 min) was 0.0%. For the same compound, the “Cumulative drug release … (%)” value ([6]; 5 min) was 9.3%, the “Cumulative drug release … (%)” value ([6]; 10 min) was 15.2% and the “Cumulative drug release … (%)” value ([6]; 15 min) was 19.7%. For the same compound, the “Cumulative drug release … (%)” value ([6]; 20 min) was 23.5%, the “Cumulative drug release … (%)” value ([6]; 30 min) was 29.8% and the “Cumulative drug release … (%)” value ([6]; 45 min) was 37.4%. For the same compound, the “Cumulative drug release … (%)” value ([6]; 60 min) was 43.7%, the “Cumulative drug release … (%)” value ([6]; 90 min) was 52.8% and the “Cumulative drug release … (%)” value ([6]; 120 min) was 60.1%. For the same compound, the “Cumulative drug release … (%)” value ([6]; 150 min) was 68.3%, the Purity ([7]; 25° C./60% RH, Open, 3 months) was 99.92% and the “Solid Form” value ([7]; 25° C./60% RH, Open, 3 months) was “Form CSVII”. For the same compound, the Purity ([7]; 40° C./75% RH, Open, 3 months) was 99.92%, the “Solid Form” value ([7]; 40° C./75% RH, Open, 3 months) was “Form CSVII” and the Purity [7, 8] was 99.92%. The “Solid Form” value [7, 8] was “Form CSVII”, the Purity [7, 9] was 99.93% and the “Solid Form” value [7, 9] was “Form CSVII”. The Purity ([7]; Initial) was 99.93%, the “Solid Form” value ([7]; Initial) was “Form CSVII” and the “chemical purity during storage” value ([7]; 25° C./60% RH) was “above 99.9%”. The “chemical purity during storage” value ([7]; 40° C./75% RH and 60° C./75% RH) was “above 99.9%”.

Source: patent US11795152B2, “Crystal form of tafamidis and preparation method therefor and use thereof” (CRYSTAL PHARMACEUTICAL (SUZHOU) CO., LTD., priority 2019, dated 2023)
